# According to US8168651B2, “Protein kinase modulators” (Cylene Pharmaceuticals, Inc., priority 2008, dated 2012):
# Legend:
# Experiment in all cases: Standardized radiometric kinase assays, percentage of activity at 0.5 μM;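 also: Read-out is ³³P-labelled substrate protein phosphorylated by each kinase, captured on filters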
# [1] = target: each individual kinase of the panel (Mus musculus, UniProt P47809)
# [2] = target: each individual kinase of the panel (Homo sapiens, UniProt P31751)
# [3] = target: each individual kinase of the panel (Homo sapiens, UniProt O00141)
# [4] = target: each individual kinase of the panel (Homo sapiens, UniProt Q16566)
# [5] = target: each individual kinase of the panel (Homo sapiens, UniProt Q86Y07)
# [6] = target: each individual kinase of the panel (Homo sapiens, UniProt Q8IWQ3)
# [7] = target: each individual kinase of the panel (Homo sapiens, UniProt Q16644)
# [8] = target: each individual kinase of the panel (Homo sapiens, UniProt Q00535)
# [9] = target: each individual kinase of the panel (Homo sapiens, UniProt Q8TDX7)
# [10] = target: each individual kinase of the panel (Homo sapiens, UniProt Q86UE8)
# [11] = target: each individual kinase of the panel (Homo sapiens, UniProt Q15759)
# [12] = target: each individual kinase of the panel (Homo sapiens, UniProt P21709)
# Chain of each individual kinase of the panel (Homo sapiens, UniProt P21709) (P21709 26-976 limits assumed): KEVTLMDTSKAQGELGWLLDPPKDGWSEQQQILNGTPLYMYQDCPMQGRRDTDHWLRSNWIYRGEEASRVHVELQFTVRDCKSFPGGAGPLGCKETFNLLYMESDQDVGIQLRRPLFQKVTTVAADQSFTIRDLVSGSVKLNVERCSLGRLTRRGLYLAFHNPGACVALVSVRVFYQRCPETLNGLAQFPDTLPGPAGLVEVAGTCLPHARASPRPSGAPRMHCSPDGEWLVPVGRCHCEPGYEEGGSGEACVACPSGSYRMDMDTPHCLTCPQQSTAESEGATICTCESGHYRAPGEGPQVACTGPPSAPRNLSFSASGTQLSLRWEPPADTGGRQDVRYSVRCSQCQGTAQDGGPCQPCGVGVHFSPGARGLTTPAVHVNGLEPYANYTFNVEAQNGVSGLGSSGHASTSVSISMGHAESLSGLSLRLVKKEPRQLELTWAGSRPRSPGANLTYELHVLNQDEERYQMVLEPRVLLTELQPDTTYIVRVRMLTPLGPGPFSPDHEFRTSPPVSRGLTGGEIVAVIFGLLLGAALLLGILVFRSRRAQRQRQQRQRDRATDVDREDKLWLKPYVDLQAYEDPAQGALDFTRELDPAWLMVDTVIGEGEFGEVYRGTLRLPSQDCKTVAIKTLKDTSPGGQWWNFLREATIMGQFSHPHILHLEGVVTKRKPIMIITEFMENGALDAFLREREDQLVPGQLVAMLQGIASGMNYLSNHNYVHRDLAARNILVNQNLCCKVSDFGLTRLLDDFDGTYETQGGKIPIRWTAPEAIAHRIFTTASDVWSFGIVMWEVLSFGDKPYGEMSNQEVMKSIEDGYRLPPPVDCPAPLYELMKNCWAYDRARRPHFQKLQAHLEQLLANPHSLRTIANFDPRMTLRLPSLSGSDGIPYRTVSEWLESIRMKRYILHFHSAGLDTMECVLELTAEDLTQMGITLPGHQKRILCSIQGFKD
# [13] = target: each individual kinase of the panel (Homo sapiens, UniProt P45983)
# [14] = target: each individual kinase of the panel (Homo sapiens, UniProt Q8N568)
# Chain of each individual kinase of the panel (Mus musculus, UniProt P47809) (P47809 2-397 limits assumed): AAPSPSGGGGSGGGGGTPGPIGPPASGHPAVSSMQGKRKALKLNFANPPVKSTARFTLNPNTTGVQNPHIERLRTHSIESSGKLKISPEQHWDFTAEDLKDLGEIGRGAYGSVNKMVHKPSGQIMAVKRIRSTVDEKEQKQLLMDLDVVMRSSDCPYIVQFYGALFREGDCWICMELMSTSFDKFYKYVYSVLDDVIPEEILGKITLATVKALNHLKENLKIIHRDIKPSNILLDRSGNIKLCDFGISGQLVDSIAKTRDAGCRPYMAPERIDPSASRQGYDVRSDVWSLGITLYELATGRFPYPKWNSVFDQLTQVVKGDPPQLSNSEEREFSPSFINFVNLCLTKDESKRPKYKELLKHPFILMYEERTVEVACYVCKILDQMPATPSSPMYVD
smiles,measurement,setting,value
C#Cc1cccc(Nc2nc3cc(C(=O)O)ccc3c3cncnc23)c1 [drawing 1135],MKK4(m) percentage of activity,[1],−2%
same,AKT2 percentage of activity,[2],−10%
same,SGK percentage of activity,[3],−1%
same,CAMK4 percentage of activity,[4],2%
same,VRK2 percentage of activity,[5],−3%
same,BRSK2 percentage of activity,[6],7%
same,MAPKAPK3 percentage of activity,[7],−8%
same,CDK5/p25 percentage of activity,[8],4%
same,CDK5/p35 percentage of activity,[8],−7%
same,NEK7 percentage of activity,[9],−14%
same,TLK2 percentage of activity,[10],8%
same,p38-beta percentage of activity,[11],5%
same,EPHA1 percentage of activity,[12],−6%
same,JNK1A1 percentage of activity,[13],−9%
same,DCAMKL2 percentage of activity,[14],−3%
